For this assay, the target named is T1, human mAChR M4 (Homo sapiens, UniProt P08173).
T1 construct: expressed in transfected cells; host or cells: CHO-K1 (ATCC), stably expressing hM4 and Gqi5
T1 sequence (P08173 1-479): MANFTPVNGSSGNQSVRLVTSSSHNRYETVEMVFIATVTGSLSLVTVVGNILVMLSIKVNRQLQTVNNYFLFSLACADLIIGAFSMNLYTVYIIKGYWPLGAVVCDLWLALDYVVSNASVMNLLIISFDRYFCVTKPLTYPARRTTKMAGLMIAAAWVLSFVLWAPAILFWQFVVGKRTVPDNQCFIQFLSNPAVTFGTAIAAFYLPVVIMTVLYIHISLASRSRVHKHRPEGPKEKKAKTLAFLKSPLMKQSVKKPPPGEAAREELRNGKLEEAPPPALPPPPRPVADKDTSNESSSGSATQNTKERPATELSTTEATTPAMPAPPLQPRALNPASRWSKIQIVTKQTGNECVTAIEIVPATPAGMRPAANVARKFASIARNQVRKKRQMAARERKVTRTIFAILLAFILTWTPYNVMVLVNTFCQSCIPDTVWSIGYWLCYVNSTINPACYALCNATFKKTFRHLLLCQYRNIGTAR
Description: mAChR M4 cell-based functional assay: calcium flux (Fluo-4, FDSS), positive allosteric modulator activity on the EC20 acetylcholine response, hM4-Gqi5 CHO-K1 cells. As to conditions: for Emax at 30 µM: CHO-K1, human M4; for EC50: PAM activity on EC20 acetylcholine response, calcium flux, read-out: Human M4 EC50. The procedure, abridged: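 CHO-K1 cells stably expressing human M4 with chimeric Gqi5, loaded with Fluo-4 AM for 50 min at 37° C. Compounds (11-point, 1:3 dilutions) added first, then an acetylcholine EC20 at 144 s; calcium read on FDSS at 1 Hz. EC50 is the half-maximal increase above the EC20 baseline, four-parameter logistic fit.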

Consider `Cc1nc(N2CCc3ncc(-c4cnn(C5CC5)c4)cc3C2)c2cc(Cl)ccc2n1` [Compound 19, 6-chloro-4-[3-(1-cyclopropylpyrazol-4-yl)-7,8-dihydro-5H-1,6-naphthyridin-6-yl]-2-methyl-quinazoline], for which the Emax at 30 µM (% ACh maximum at 30 μM) stood at 80%. The EC50 (human M4) came to 390 nM.
For `Fc1ccc2nc(Cl)nc(N3CCc4ncc(C(F)(F)F)cc4C3)c2c1` [Compound 120, 2-chloro-6-fluoro-4-[3-(trifluoromethyl)-7,8-dihydro-5H-1,6-naphthyridin-6-yl]quinazoline] the same measures were 91% and 100 nM.
Regarding `Cc1ccc2nc(C)nc(N3CCc4ncc(N5CCCn6nccc65)cc4C3)c2c1` [Compound 100, 4-[3-(6,7-dihydro-5H-pyrazolo[1,5-a]pyrimidin-4-yl)-7,8-dihydro-5H-1,6-naphthyridin-6-yl]-2,6-dimethyl-quinazoline], where the note is “% ACh maximum at 30 μM”, the Emax at 30 µM turned out to be 101%. In addition, the EC50 (human M4) is 60 nM.
Regarding `Fc1ccc2ncnc(N3CCc4ncc(Cc5ccccc5F)cc4C3)c2c1` [Compound 164, 6-fluoro-4-[3-[(2-fluorophenyl)methyl]-7,8-dihydro-5H-1,6-naphthyridin-6-yl]quinazoline], the Emax at 30 µM (% ACh maximum at 30 μM) stood at 75%. Further, where the note is “human M4”, the EC50 turned out to be 590 nM.
For `Cc1ccc(-c2cnc3c(c2)CN(c2ncnc4ccc(F)cc24)CC3)cn1` [Compound 38, 6-fluoro-4-[3-(6-methyl-3-pyridyl)-7,8-dihydro-5H-1,6-naphthyridin-6-yl]quinazoline] the same measures were 93% and 170 nM.
For `FC(F)(F)c1cnc2c(c1)CN(c1nc(Cl)nc3ccc(C(F)(F)F)cc13)CC2` [Compound 135, 2-chloro-6-(trifluoromethyl)-4-[3-(trifluoromethyl)-7,8-dihydro-5H-1,6-naphthyridin-6-yl]quinazoline] the same measures were 91% and 1660 nM.
The like results for `Fc1ccc2nc(C(F)(F)F)nc(N3CCc4ncc(N5CCCn6nccc65)cc4C3)c2c1` [Compound 111, 4-[3-(6,7-dihydro-5H-pyrazolo[1,5-a]pyrimidin-4-yl)-7,8-dihydro-5H-1,6-naphthyridin-6-yl]-6-fluoro-2-(trifluoromethyl)quinazoline] were, in that order, 82% and 400 nM.
With `Cc1cc(F)ncc1-c1cnc2c(c1)CN(c1ncnc3ccc(Cl)cc13)CC2` [Compound 310, 6-chloro-4-(3-(6-fluoro-4-methylpyridin-3-yl)-7,8-dihydro-1,6-naphthyridin-6(5H)-yl)quinazoline], the maximal response (Emax) at 30 µM (% ACh maximum at 30 μM) worked out at 86%. Besides, the EC50 (human M4) was determined as 60 nM.
In the case of `CC1CN(c2ncnc3ccc(F)cc23)Cc2cc(C(F)(F)F)cnc21` (single isomer, unassigned) [Compound 117, 6-fluoro-4-[(8R or S)-8-methyl-3-(trifluoromethyl)-7,8-dihydro-5H-1,6-naphthyridin-6-yl]quinazoline], the “Emax (%)” value (human M4, % ACh maximum at 30 μM) was 100%. For the same molecule, the 50% effective concentration (EC50) (human M4) was 400 nM.
`Cc1nc(N2CCc3ncc(N4CCCn5nccc54)cc3C2)c2cc(C(F)(F)F)ccc2n1` [Compound 101, 4-[3-(6,7-dihydro-5H-pyrazolo[1,5-a]pyrimidin-4-yl)-7,8-dihydro-5H-1,6-naphthyridin-6-yl]-2-methyl-6-(trifluoromethyl)quinazoline]: the maximal effect (Emax) at 30 µM (% ACh maximum at 30 μM) was 92%. In addition, for the setting “human M4”, the EC50 turned out to be 480 nM.
With `FC(F)(F)c1cnc2c(c1)CN(c1nc(Cl)nc3ccc(Cl)cc13)CC2` [Compound 141, 2,6-dichloro-4-[3-(trifluoromethyl)-7,8-dihydro-5H-1,6-naphthyridin-6-yl]quinazoline], under “% ACh maximum at 30 μM”, the Emax at 30 µM was determined as 95%. For the same molecule, where the note is “human M4”, the EC50 was found to be 220 nM.
For `Clc1ccc2ncnc(N3CCc4ncc(N5CCCn6nccc65)cc4C3)c2c1` [Compound 83, 6-chloro-4-[3-(6,7-dihydro-5H-pyrazolo[1,5-a]pyrimidin-4-yl)-7,8-dihydro-5H-1,6-naphthyridin-6-yl]quinazoline] the same measures were 108% and 20 nM.
For `Fc1ccccc1Oc1cnc2c(c1)CN(c1ncnc3ccc(Cl)cc13)CC2` [Compound 232, 6-chloro-4-(3-(2-fluorophenoxy)-7,8-dihydro-1,6-naphthyridin-6(5H)-yl)quinazoline] the same measures were 77% and 740 nM.
With `Clc1ccc2ncnc(N3CCc4ncc(-c5ccc(C6CC6)nc5)cc4C3)c2c1` [Compound 42, 6-chloro-4-[3-(6-cyclopropyl-3-pyridyl)-7,8-dihydro-5H-1,6-naphthyridin-6-yl]quinazoline], under “% ACh maximum at 30 μM”, the Emax at 30 µM was found to be 72%. Moreover, where the note is “human M4”, the EC50 came to 380 nM.
The like results for `Cc1nc(N2CCc3ncc(CC(F)(F)F)cc3C2)c2cc(Cl)ccc2n1` [Compound 287, 6-chloro-2-methyl-4-(3-(2,2,2-trifluoroethyl)-7,8-dihydro-1,6-naphthyridin-6(5H)-yl)quinazoline] were, in that order, 85% and 360 nM.
The like results for `C[C@@H]1CN(c2cnc3c(c2)CN(c2ncnc4cc(F)c(F)cc24)CC3)CCO1` [Compound 241, (R)-4-(6-(6,7-difluoroquinazolin-4-yl)-5,6,7,8-tetrahydro-1,6-naphthyridin-3-yl)-2-methylmorpholine] were, in that order, 77% and 80 nM.
The like results for `Fc1ccc2ncnc(N3CCc4ncc(N5CCC(C(F)(F)F)n6nccc65)cc4C3)c2c1` (stereo not drawn) [Compound 69, 6-fluoro-4-[3-[7-(trifluoromethyl)-6,7-dihydro-5H-pyrazolo[1,5-a]pyrimidin-4-yl]-7,8-dihydro-5H-1,6-naphthyridin-6-yl]quinazoline] were, in that order, 71% and 120 nM.
Turning to `Cn1nccc1-c1cnc2c(c1)CN(c1ncnc3ccc(F)cc13)CC2` [Compound 18, 6-fluoro-4-[3-(2-methylpyrazol-3-yl)-7,8-dihydro-5H-1,6-naphthyridin-6-yl]quinazoline], the maximal effect (Emax) at 30 µM (% ACh maximum at 30 μM) was found to be 70%. In addition, under “human M4”, the EC50 came out at 40 nM.
Regarding `Cc1nc(N2CCc3ncc(C(F)(F)F)cc3C2)c2cc(F)c(C)cc2n1` [Compound 172, 6-fluoro-2,7-dimethyl-4-[3-(trifluoromethyl)-7,8-dihydro-5H-1,6-naphthyridin-6-yl]quinazoline], under “% ACh maximum at 30 μM”, the maximal response (Emax) at 30 µM worked out at 81%. Also, the EC50 (human M4) was 810 nM.
With `CN1CCN(c2nc(N3CCc4ncc(Nc5ccnn5C)cc4C3)c3cc(F)ccc3n2)CC1` [Compound 211, 6-[6-fluoro-2-(4-methylpiperazin-1-yl)quinazolin-4-yl]-N-(2-methylpyrazol-3-yl)-7,8-dihydro-5H-1,6-naphthyridin-3-amine], the Emax at 30 µM (% ACh maximum at 30 μM) was 80%. Where the note is “human M4”, the EC50 came to 470 nM.
For `Cc1nn(C)cc1-c1cnc2c(c1)CN(c1nc(C3CC3)nc3ccc(F)cc13)CC2` [Compound 193, 2-cyclopropyl-4-[3-(1,3-dimethylpyrazol-4-yl)-7,8-dihydro-5H-1,6-naphthyridin-6-yl]-6-fluoro-quinazoline] the same measures were 85% and 950 nM.
The like results for `Cc1nc(N2CCc3ncc(-c4cc(F)ccc4C)cc3C2)c2cc(F)ccc2n1` [Compound 295, 6-fluoro-4-(3-(5-fluoro-2-methylphenyl)-7,8-dihydro-1,6-naphthyridin-6(5H)-yl)-2-methylquinazoline] were, in that order, 85% and 2630 nM.
For `Cc1nn(C)cc1-c1cnc2c(c1)CN(c1nc(Cl)nc3ccc(Cl)cc13)CC2` [Compound 28, 2,6-dichloro-4-[3-(1,3-dimethylpyrazol-4-yl)-7,8-dihydro-5H-1,6-naphthyridin-6-yl]quinazoline] the same measures were 103% and 570 nM.
With `Cc1ccc(-c2cnc3c(c2)CN(c2nc(C)nc4ccc(Cl)cc24)CC3)cn1` [Compound 51, 6-chloro-2-methyl-4-[3-(6-methyl-3-pyridyl)-7,8-dihydro-5H-1,6-naphthyridin-6-yl]quinazoline], the Emax at 30 µM (% ACh maximum at 30 μM) stood at 95%. Moreover, the EC50 (human M4) worked out at 290 nM.
The like results for `Cn1nccc1Nc1cnc2c(c1)CN(c1ncnc3ccc(Cl)cc13)CC2` [Compound 106, 6-(6-chloroquinazolin-4-yl)-N-(2-methylpyrazol-3-yl)-7,8-dihydro-5H-1,6-naphthyridin-3-amine] were, in that order, 95% and 130 nM.
For `Cc1noc(C)c1-c1cnc2c(c1)CN(c1ncnc3cc(F)c(F)cc13)CC2` [Compound 240, 4-(6-(6,7-difluoroquinazolin-4-yl)-5,6,7,8-tetrahydro-1,6-naphthyridin-3-yl)-3,5-dimethylisoxazole] the same measures were 79% and 210 nM.
For `Cc1ccc2nc(NCC(C)(C)O)nc(N3CCc4ncc(C(F)(F)F)cc4C3)c2c1` [Compound 208, 2-methyl-1-[[6-methyl-4-[3-(trifluoromethyl)-7,8-dihydro-5H-1,6-naphthyridin-6-yl]quinazolin-2-yl]amino]propan-2-ol] the same measures were 76% and 390 nM.

The values are drawn from patent US20250026752A1, “POSITIVE ALLOSTERIC MODULATORS OF THE MUSCARINIC ACETYLCHOLINE RECEPTOR M4” (Vanderbilt University, priority 2021, published 2025).
